Measured values published in patent US8575178B2, “Isothiazolo-pyrimidinedione derivatives as TRPA1 modulators” (Glenmark Pharmaceuticals S.A., priority 2009, dated 2013).

Columns and labels:
human TRPA1 = target: T1, human TRPA1 (Homo sapiens, UniProt O75762); assay: 45Calcium uptake assay, inhibition of AITC induced calcium uptake in human TRPA1 expressing CHO cells; type: cell-based; conditions: AITC 30 μM; for inhibition at 1 µM: 1.0 μM compound, read-out: human TRPA1 Percentage inhibition at 1.0 μM; for inhibition at 10 µM: 10.0 μM compound, read-out: human TRPA1 Percentage inhibition at 10.0 μM
T1 construct: expressed in transfected cells; host or cells: CHO cells (G-418 selection)
T1 sequence (O75762 whole entry): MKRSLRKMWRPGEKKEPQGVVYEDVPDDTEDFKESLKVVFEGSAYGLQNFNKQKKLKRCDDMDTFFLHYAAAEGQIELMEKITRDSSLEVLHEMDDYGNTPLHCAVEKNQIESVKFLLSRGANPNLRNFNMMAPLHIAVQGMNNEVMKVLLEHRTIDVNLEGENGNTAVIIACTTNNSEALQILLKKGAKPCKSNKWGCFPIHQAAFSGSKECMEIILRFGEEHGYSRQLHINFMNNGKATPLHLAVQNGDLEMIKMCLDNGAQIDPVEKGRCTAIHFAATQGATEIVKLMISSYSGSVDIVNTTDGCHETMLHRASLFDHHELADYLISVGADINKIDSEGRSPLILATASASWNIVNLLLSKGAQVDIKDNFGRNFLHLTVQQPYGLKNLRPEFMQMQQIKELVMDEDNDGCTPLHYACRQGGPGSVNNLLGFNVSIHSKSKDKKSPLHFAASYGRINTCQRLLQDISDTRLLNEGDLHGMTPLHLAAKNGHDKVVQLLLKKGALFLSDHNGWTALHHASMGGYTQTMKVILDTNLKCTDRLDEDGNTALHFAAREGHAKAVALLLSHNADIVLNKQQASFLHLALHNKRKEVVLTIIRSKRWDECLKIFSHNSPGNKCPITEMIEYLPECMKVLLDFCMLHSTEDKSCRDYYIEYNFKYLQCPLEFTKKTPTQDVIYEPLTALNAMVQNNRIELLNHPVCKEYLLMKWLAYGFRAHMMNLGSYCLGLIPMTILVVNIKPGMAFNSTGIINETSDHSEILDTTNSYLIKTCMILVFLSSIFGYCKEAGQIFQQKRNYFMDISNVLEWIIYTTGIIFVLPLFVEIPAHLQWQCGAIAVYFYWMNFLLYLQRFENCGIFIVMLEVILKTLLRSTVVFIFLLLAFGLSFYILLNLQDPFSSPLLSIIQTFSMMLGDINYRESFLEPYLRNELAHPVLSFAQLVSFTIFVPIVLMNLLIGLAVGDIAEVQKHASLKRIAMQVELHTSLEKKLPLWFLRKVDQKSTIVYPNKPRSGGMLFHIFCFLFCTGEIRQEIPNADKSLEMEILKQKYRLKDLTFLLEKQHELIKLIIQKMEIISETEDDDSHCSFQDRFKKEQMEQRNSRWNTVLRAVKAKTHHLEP
Text: (§1) The illustrative examples of the present invention are screened for TRPA1 activity according to a modified procedure described in (a) Tóth, A. et al. Life Sciences, 2003, 73, 487-498. (b) McNamara C, R. et al, Proc. Natl. Acad. Sci. U.S.A., 2007, 104, 13525-13530. The screening of the compounds can be carried out by other methods and procedures known to persons skilled in the art.
(§2) Screening for TRPA1 Antagonist Using the ^45Calcium Uptake Assay:
(§3) The inhibition of TRPA1 receptor activation was measured as inhibition of allyl isothiocyanate (AITC) induced cellular uptake of radioactive calcium.
(§4) Test compounds were dissolved in 100% DMSO to prepare 10 mM stock and then diluted using plain medium with 0.1% BSA and 1.8 mM CaCl2 to get the desired concentration. The final concentration of DMSO in the reaction was 0.5% (v/v). Human TRPA1 expressing CHO cells were grown in F-12 DMEM medium with 10% FBS, 1% penicillin-streptomycin solution, and 400 μg/ml of G-418. Rat TRPA1 expressing CHO cells were grown in F-12 DMEM medium with 10% FBS, 1% penicillin-streptomycin solution, and 400 μg/ml of Zeocin. Cells were seeded 24 h prior to the assay in 96 well plates so as to get ˜50,000 cells per well on the day of experiment. Cells were treated with the test compounds for 10 minutes followed by the addition of AITC at a final concentration of 30 μM (for human TRPA1) and/or 10 μM (for rat TRPA1) and 5 μCi/ml ^45Ca^+2 for 3 minutes. Cells were washed and lysed using a buffer containing 1% Triton X-100, 0.1% deoxycholate and 0.1% SDS. Radioactivity in the lysate was measured in a Packard TopCount after addition of liquid scintillant. (Toth et al, Life Sciences (2003) 73, 487-498; McNamara C R et al, Proceedings of the National Academy of Sciences, (2007) 104, 13525-13530).
(§5) Concentration response curves were plotted as a % of maximal response obtained in the absence of test antagonist. IC50 values can be calculated from concentration response curve by nonlinear regression analysis using GraphPad PRISM software.

rat TRPA1 = target: T2, rat TRPA1 (Rattus norvegicus, UniProt Q6RI86); assay: 45Calcium uptake assay, inhibition of AITC induced calcium uptake in rat TRPA1 expressing CHO cells; type: cell-based; conditions: AITC 10 μM; for inhibition at 1 µM: 1.0 μM compound, read-out: rat TRPA1 Percentage inhibition at 1.0 μM; for inhibition at 10 µM: 10.0 μM compound, read-out: rat TRPA1 Percentage inhibition at 10.0 μM
T2 construct: expressed in transfected cells; host or cells: CHO cells (Zeocin selection)
T2 sequence (Q6RI86 whole entry): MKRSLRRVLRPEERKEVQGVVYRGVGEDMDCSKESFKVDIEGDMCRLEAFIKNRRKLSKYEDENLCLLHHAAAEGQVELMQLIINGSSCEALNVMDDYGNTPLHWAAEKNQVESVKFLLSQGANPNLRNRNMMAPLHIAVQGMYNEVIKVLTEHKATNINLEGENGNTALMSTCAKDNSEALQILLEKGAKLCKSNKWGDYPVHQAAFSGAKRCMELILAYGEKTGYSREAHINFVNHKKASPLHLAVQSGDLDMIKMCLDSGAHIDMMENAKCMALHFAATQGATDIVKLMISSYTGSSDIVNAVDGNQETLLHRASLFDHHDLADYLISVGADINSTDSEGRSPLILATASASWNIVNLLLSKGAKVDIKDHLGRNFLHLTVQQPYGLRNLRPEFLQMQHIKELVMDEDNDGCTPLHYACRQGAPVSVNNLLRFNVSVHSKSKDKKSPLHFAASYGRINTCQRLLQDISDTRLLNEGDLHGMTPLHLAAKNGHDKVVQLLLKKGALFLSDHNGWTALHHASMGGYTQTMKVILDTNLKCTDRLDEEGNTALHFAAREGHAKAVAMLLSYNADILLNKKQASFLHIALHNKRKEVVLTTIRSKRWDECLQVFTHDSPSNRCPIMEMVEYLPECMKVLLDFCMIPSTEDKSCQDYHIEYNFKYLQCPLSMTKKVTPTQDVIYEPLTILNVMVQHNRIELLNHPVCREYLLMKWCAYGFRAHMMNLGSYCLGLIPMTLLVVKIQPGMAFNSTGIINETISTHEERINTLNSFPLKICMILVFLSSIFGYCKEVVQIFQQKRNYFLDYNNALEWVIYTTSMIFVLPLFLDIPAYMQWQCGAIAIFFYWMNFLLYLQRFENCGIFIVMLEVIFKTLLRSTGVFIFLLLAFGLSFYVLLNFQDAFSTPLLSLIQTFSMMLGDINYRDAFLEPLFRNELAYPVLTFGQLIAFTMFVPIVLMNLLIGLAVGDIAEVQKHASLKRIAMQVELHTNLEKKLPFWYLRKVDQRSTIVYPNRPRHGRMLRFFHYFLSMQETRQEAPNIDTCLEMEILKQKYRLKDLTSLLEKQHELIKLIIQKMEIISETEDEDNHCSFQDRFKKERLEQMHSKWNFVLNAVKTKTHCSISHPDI
Text: as §1, §2, §3, §4, §5

inhibition at 1 µM (human TRPA1) [%] | inhibition at 10 µM (human TRPA1) [%] | IC50 (human TRPA1) [nM] | inhibition at 1 µM (rat TRPA1) [%] | inhibition at 10 µM (rat TRPA1) [%] | IC50 (rat TRPA1) [nM] | Structure (SMILES)
99.3 | 100 | < 50 | 100 | 100 | < 50 | Cn1c(=O)c2c(CC(=O)Nc3nc(-c4cccc(C(F)(F)F)c4F)cs3)nsc2n(C)c1=O [Example 23, 2-(5,7-Dimethyl-4,6-dioxo-4,5,6,7-tetrahydro[1,2]thiazolo[5,4-d]pyrimidin-3-yl)-N-{4-[2-fluoro-3-(trifluoromethyl)phenyl]-1,3-thiazol-2-yl}acetamide]
99.6 | 100 | < 50 | 100 | 99.8 | 50 to 100 | Cn1c(=O)c2c(CC(=O)Nc3nc(-c4ccc(F)c(OC(F)(F)F)c4)cs3)nsc2n(C)c1=O [Example 24, 2-(5,7-Dimethyl-4,6-dioxo-4,5,6,7-tetrahydro[1,2]thiazolo[5,4-d]pyrimidin-3-yl)-N-{4-[4-fluoro-3-(trifluoromethoxy)phenyl]-1,3-thiazol-2-yl}acetamide]
99.9 | 100 | < 50 | 98.8 | 100 | 50 to 100 | Cn1c(=O)c2c(CC(=O)Nc3nc(-c4ccc(OC(F)(F)F)c(F)c4)cs3)nsc2n(C)c1=O [Example 25, 2-(5,7-Dimethyl-4,6-dioxo-4,5,6,7-tetrahydro[1,2]thiazolo[5,4-d]pyrimidin-3-yl)-N-{4-[3-fluoro-4-(trifluoromethoxy)phenyl]-1,3-thiazol-2-yl}acetamide]
99.9 | 99.5 | < 50 | 97.7 | 100 | > 100 | Cn1c(=O)c2c(CC(=O)Nc3nc(-c4ccc(Cl)c(Cl)c4)cs3)nsc2n(C)c1=O [Example 26, N-[4-(3,4-Dichlorophenyl)-1,3-thiazol-2-yl]-2-(5,7-dimethyl-4,6-dioxo-4,5,6,7-tetrahydro[1,2]thiazolo[5,4-d]pyrimidin-3-yl)acetamide]
97.8 | 99.8 | < 50 | 81.8 | 99.6 | > 100 | Cn1c(=O)c2c(CC(=O)Nc3nc(-c4ccc(F)c(F)c4)cs3)nsc2n(C)c1=O [Example 27, N-[4-(3,4-Difluorophenyl)-1,3-thiazol-2-yl]-2-(5,7-dimethyl-4,6-dioxo-4,5,6,7-tetrahydro[1,2]thiazolo[5,4-d]pyrimidin-3-yl)acetamide]
98 | 99.6 | < 50 | 92.8 | 100 |  | Cn1c(=O)c2c(CC(=O)Nc3nc(-c4ccc(F)cc4F)cs3)nsc2n(C)c1=O [Example 28, N-[4-(2,4-Difluorophenyl)-1,3-thiazol-2-yl]-2-(5,7-dimethyl-4,6-dioxo-4,5,6,7-tetrahydro[1,2]thiazolo[5,4-d]pyrimidin-3-yl)acetamide]
98.1 | 99.6 | < 50 | 100 | 100 | < 50 | Cn1c(=O)c2c(CC(=O)Nc3nc(-c4ccc(Cl)c(C(F)(F)F)c4)cs3)nsc2n(C)c1=O [Example 29, 2-(5,7-Dimethyl-4,6-dioxo-4,5,6,7-tetrahydro[1,2]thiazolo[5,4-d]pyrimidin-3-yl)-N-{4-[4-chloro-3-(trifluoromethyl)phenyl]-1,3-thiazol-2-yl}acetamide]
95.6 | 99.7 | < 50 | 100 | 99.3 | 50 to 100 | Cn1c(=O)c2c(CC(=O)Nc3nc(-c4ccc(OC(F)(F)F)c(Cl)c4)cs3)nsc2n(C)c1=O [Example 30, 2-(5,7-Dimethyl-4,6-dioxo-4,5,6,7-tetrahydro[1,2]thiazolo[5,4-d]pyrimidin-3-yl)-N-{4-[3-chloro-4-(trifluoromethoxy)phenyl]-1,3-thiazol-2-yl}acetamide]
99.2 | 99.2 |  | 99.6 | 96.2 |  | Cn1c(=O)c2c(CC(=O)Nc3nc(-c4ccc(Cl)c(OC(F)(F)F)c4)cs3)nsc2n(C)c1=O [Example 31, 2-(5,7-Dimethyl-4,6-dioxo-4,5,6,7-tetrahydro[1,2]thiazolo[5,4-d]pyrimidin-3-yl)-N-{4-[4-chloro-3-(trifluoromethoxy)phenyl]-1,3-thiazol-2-yl}acetamide]
99.2 | 99.4 |  | 99.8 | 100 |  | Cn1c(=O)c2c(CC(=O)Nc3nc(-c4cc(Cl)cc(C(F)(F)F)c4)cs3)nsc2n(C)c1=O [Example 32, 2-(5,7-Dimethyl-4,6-dioxo-4,5,6,7-tetrahydro[1,2]thiazolo[5,4-d]pyrimidin-3-yl)-N-{4-[3-chloro-5-(trifluoromethyl)phenyl]-1,3-thiazol-2-yl}acetamide]
98.3 | 99.3 | < 50 |  |  | < 50 | Cn1c(=O)c2c(CC(=O)Nc3nc(-c4ccc(F)c(C(F)(F)F)c4F)cs3)nsc2n(C)c1=O [Example 37, N-{4-[2,4-Difluoro-3-(trifluoromethyl)phenyl]-1,3-thiazol-2-yl}-2-(5,7-dimethyl-4,6-dioxo-4,5,6,7-tetrahydro[1,2]thiazolo[5,4-d]pyrimidin-3-yl)acetamide]
100 | 99.9 | < 50 | 100 | 100 | < 50 | Cn1c(=O)c2c(CC(=O)Nc3nc(-c4cc(F)c(C(F)(F)F)c(F)c4)cs3)nsc2n(C)c1=O [Example 38, N-{4-[3,5-difluoro-4-(trifluoromethyl)phenyl]-1,3-thiazol-2-yl}-2-(5,7-dimethyl-4,6-dioxo-4,5,6,7-tetrahydro[1,2]thiazolo[5,4-d]pyrimidin-3-yl)acetamide]
99.8 | 99.9 |  | 96.5 | 95.8 |  | Cn1c(=O)c2c(CC(=O)Nc3nc(-c4ccc(C(F)(F)F)c(F)c4F)cs3)nsc2n(C)c1=O [Example 39, N-{4-[2,3-Difluoro-4-(trifluoromethyl)phenyl]-1,3-thiazol-2-yl}-2-(5,7-dimethyl-4,6-dioxo-4,5,6,7-tetrahydro[1,2]thiazolo[5,4-d]pyrimidin-3-yl)acetamide]
